Data on 2 molecules can be found in patent US6579903B2, “Klainetins and their derivatives, method for their preparation and use thereof” (Aventis Pharma Deutschland GmbH, priority 2000, dated 2003).

One data set concerns the target Cyclin D1/CDK4 (Homo sapiens, UniProt P11802). Briefly: CDK4 kinase inhibition, FlashPlate phosphorylation of peptide substrate. Particulars: purified enzyme, 2 μM ATP, room temperature. In kind it is biochemical. The protocol:
(§1) The cytostatic activities were determined by using purified enzymes in 384-well microtiter plates (coated FlashPlates, NEN Life Science). The enzyme activities were determined by means of phosphorylation of specific peptide substrates. A klainetin dilution series prepared beforehand, with concentrations of 100, 50, 25, 12.5, 6.25, 3.125, 1.5625, 0.7813, 0.3906, 0.195, 0.094, 0.047 and 0 μM, were pipetted into the wells in the appropriate order. The reaction mixture (radiolabeled ATP, buffer solution pH 7.4 and enzyme solutions) was then added followed by incubation at room temperature for 1 h.
Description of CDK4 reaction mixture:
Kinase buffer: 50 mM HEPES, 10 mM MgCl2, 2.5 mM EGTA pH8.0, 10 mM β-glycerol phosphate, 1 mM orthovanadate, 1 mM sodium fluoride, and 1 mM DTT
Biotinylated peptide substrate for FlashPlate coating (1 mg/ml solution in PBS buffer)
ATP solution: 100 μCi/ml 33P-γ-ATP and 10 μM ATP
Cyclin D1/CDK4 enzyme solution: 100 mg/ml in kinase buffer
Wash solution: 3% phosphoric acid
30 μl of diluted klainetin solution, 20 μl of ATP/enzyme solution (final conc. 1 μCi 33P-γ-ATP, 2 μM ATP and 1 μg of enzyme) […]
(§2) The activity of the kinases (CDK4 or KDR) was meaured by incorporation of radioactive phosphate from ATP into the substrate and the inhibitory action of the klainetins (IC50) was calculated.

The target of another data set is CDK2 (Homo sapiens, UniProt P24941). Kind of data set: CDK2 kinase inhibition (IC50). In kind it is biochemical. The note with it: purified enzyme.
For the next data set, the target named is KDR (Homo sapiens, UniProt P35968). Briefly: KDR kinase inhibition, phosphorylation of PLCγ1 peptide substrate. Format: biochemical. Particulars: purified enzyme, 5 μM ATP, room temperature 1 h. The protocol: as §1
Description of KDR reaction mixture:
Kinase buffer: 50 mM MOPS, pH7.4, 10 mM MgCl2, 2 mM DTT, 2.5 mM EGTA, 10 mM β-glycerol phosphate, 1 mM orthovanadate, and 1 mM sodium fluoride
ATP solution: 25 μCi/ml 33P-γ-ATP und 12.5 μM ATP
KDR enzyme solution: 3.5 μg/ml in kinase buffer
Wash solution: PBS (without Mg^2+, Ca^2+)
10 μl diluted klainetin solution
20 μl of enzyme solution (3.5 μg/ml; 70 ng/well)
20 μl of ATP solution (final concentration 0.5 μCi and 5 μM ATP/well)
Incubation at room temperature for 1 h, followed by washing 3× with 75 μl of wash solution and measurement in MicroBeta Counter (Wallac) for 30 sec.
as §2

Data set [1] in a line: Solubility (characterization). In kind it is physicochemical.
A short description of data set [2]: Stability (characterization). In kind it is physicochemical.

The IC50 is the point on the concentration scale where inhibition reaches its midpoint. Low values mean inhibition by little substance, high ones a need for much substance.

Cyclin D1/CDK4, sequence (P11802 whole entry, species assumed): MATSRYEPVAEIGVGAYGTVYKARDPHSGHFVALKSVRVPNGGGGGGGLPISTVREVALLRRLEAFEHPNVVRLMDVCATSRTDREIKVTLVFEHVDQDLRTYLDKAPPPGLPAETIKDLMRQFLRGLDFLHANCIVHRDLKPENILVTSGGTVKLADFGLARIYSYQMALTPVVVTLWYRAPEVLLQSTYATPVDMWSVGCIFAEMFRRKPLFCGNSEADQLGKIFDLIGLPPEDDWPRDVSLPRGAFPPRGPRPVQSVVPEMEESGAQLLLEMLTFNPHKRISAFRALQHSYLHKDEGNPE
Cyclin D1/CDK4, sequence (P24385 whole entry partner, species assumed): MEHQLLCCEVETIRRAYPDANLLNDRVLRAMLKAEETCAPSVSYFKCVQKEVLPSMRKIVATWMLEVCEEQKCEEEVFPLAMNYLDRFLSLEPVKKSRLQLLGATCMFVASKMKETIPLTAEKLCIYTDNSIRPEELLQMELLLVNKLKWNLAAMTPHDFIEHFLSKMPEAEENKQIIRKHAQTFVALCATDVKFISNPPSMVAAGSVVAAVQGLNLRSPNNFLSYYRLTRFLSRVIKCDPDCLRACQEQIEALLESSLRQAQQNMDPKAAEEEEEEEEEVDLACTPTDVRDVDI
KDR, sequence (P35968 20-1356, species assumed): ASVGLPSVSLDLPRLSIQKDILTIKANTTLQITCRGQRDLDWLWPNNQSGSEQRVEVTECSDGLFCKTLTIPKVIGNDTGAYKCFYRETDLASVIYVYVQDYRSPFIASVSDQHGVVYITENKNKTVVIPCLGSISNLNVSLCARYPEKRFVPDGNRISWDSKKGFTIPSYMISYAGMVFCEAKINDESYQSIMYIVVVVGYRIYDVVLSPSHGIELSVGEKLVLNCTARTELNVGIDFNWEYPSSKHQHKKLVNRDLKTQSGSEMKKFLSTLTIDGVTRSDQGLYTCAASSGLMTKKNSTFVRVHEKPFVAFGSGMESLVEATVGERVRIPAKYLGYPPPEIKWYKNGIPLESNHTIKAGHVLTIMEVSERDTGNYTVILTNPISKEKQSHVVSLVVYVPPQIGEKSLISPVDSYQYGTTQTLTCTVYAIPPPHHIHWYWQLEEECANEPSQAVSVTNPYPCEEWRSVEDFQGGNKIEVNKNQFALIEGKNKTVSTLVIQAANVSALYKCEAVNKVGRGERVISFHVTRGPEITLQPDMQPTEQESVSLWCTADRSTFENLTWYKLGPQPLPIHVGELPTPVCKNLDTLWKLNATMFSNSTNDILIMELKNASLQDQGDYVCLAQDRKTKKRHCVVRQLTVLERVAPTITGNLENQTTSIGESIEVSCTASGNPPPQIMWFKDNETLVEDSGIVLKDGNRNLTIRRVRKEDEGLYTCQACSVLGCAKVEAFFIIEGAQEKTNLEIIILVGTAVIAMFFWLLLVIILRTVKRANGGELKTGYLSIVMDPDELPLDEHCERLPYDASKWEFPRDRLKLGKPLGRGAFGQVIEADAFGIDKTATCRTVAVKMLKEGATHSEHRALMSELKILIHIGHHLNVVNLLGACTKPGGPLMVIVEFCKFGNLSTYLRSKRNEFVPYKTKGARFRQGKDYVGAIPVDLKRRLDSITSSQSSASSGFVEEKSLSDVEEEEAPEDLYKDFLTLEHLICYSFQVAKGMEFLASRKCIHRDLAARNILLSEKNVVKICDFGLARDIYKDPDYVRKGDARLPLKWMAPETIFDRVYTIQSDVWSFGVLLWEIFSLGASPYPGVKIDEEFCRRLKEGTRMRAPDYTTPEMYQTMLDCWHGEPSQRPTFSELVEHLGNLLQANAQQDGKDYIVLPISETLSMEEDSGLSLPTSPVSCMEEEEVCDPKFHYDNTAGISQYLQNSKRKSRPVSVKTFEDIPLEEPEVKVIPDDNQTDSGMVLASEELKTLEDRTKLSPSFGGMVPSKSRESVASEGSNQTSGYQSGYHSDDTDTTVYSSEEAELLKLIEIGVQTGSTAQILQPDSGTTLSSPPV

`COc1c(Cc2cccc(O)c2O)c(O)cc2c1C(=O)CC(c1ccccc1)O2` (centres unmarked) [Klainetin A, klainetin A]: the IC50 at Cyclin D1/CDK4 is 2.09 µM; on CDK2, 21.5 µM; on KDR it was 6.96 µM. Further, the “solubility in polar organic solvents” value in data set [1] is on record as “soluble”. The solubility in water entry in data set [1] was “only slightly soluble”. Moreover, the “stability in the alkaline and strongly acidic range” value in data set [2] (alkaline and strongly acidic range) is reported as “unstable”. For the same molecule, in data set [2], the “stability in a neutral and mildly acidic environment” value is given as “stable”.
As for `COc1cc(O)c(Cc2cccc(O)c2O)c(O)c1C(=O)/C=C/c1ccccc1` [Klainetin B, klainetin B], the figures for the IC50 against Cyclin D1/CDK4, against CDK2 and against KDR were 1.14 µM, 6.04 µM and 6.48 µM, respectively. Moreover, the “solubility in polar organic solvents” value in data set [1] is given as “soluble”. Also, the solubility in water entry in data set [1] was “only slightly soluble”. For the same molecule, the “stability in the alkaline range” value in data set [2] (alkaline range) is on record as “unstable”. Moreover, the “stability in a neutral and mildly acidic environment” value in data set [2] is “stable”.
